The values below come from publication PMC9305975 (Journal of the American Chemical Society, 2022).

This test concerns the target VcRibB (RibB, 3,4-dihydroxy-2-butanone 4-phosphate synthase) (Vibrio cholerae, UniProt Q9KKP2). To be noted: two Mn2+ in the active site; non-substrate analogue.

Chain of VcRibB (RibB, 3,4-dihydroxy-2-butanone 4-phosphate synthase) (Q9KKP2 whole entry): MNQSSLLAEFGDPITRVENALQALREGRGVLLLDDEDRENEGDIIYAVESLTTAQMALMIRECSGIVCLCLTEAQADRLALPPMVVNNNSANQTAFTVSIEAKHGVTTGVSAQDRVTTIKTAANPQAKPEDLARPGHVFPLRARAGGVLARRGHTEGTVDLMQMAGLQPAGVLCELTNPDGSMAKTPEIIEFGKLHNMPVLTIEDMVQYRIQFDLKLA

`O=C(CO)[C@H](O)[C@@H](O)COP(=O)(O)O` [L-xylulose 5-phosphate]: the “X-ray crystal structure; EPR” value was “L-xylulose 5-phosphate (L-Xy5P), showing two manganese ions and a significantly different, more twisted binding”.
